This note sets out measurements from ChEMBL document CHEMBL1201862, “PubChem BioAssay data set” (2004).

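Five compound concentrations were applied to cells in 96-well plates for 48 hours; endpoints were derived by simple linear interpolation of the resulting dose-response curve. GI50 = concentration required for 50% inhibition of growth.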 Activity calls are given as the source filed them. Rule as the data show it: active = GI50 up to about 1.1 µM and inactive = higher.

Test systems include IGROV-1; HT-29; EKVX; HL-60; HCC 2998; UACC-62; COLO 205; 786-0; K562; M14; MOLT-4; A549; SN12C; SNB-75; SNB-19; OVCAR-5; Malme-3M; SF-539; OVCAR-4.
Assay in all cases: growth of human tumour cells (NCI), 48 h

On to `CCC(=O)C(C)C1=Nc2nnc(CCCCCCCc3nnc4n3C(=O)C(C(C)C(=O)CC)=N4)n2C1=O` (stereo unspecified), for which the GI50 with IGROV-1, with HT-29, with EKVX, with HL-60, with HCC 2998 and in the test on UACC-62 was > 100 µM (inactive) in each case. For the same compound, the GI50 in the test on COLO 205, in the test on 786-0, in the test with K562, in the test on M14, with MOLT-4 and with A549 was > 100 µM (inactive) in each case. The GI50 in the test on SN12C, in the test on SNB-75, with SNB-19, with OVCAR-5, in the test with Malme-3M and with SF-539 was > 100 µM (inactive) each time.

Take `CC(/C=N\NC(=S)N1CCCCC1)=N/NC(=S)N1CCCCC1`: the GI50 in the test with IGROV-1 is 1.04 µM (active); in the test with HT-29, 0.931 µM (active); in the test on EKVX, 1.88 µM (inactive); in the test with OVCAR-4, 2.3 µM (inactive); with HCC 2998, 1.63 µM (inactive); in the test with UACC-62 it was 0.671 µM (active). In addition, the GI50 is 1.75 µM (inactive) in the test on COLO 205; 2.03 µM (inactive) in the test on 786-0; 1.12 µM (active) in the test on K562; 1.28 µM (inactive) in the test with M14; 0.514 µM (active) in the test on MOLT-4; 0.692 µM (active) with A549. In addition, the GI50 was 1.35 µM (inactive) in the test with SN12C; 1.69 µM (inactive) in the test with SNB-75; 2.14 µM (inactive) in the test with SNB-19; 2.69 µM (inactive) in the test on OVCAR-5; 2.15 µM (inactive) in the test with Malme-3M; 3.65 µM (inactive) in the test with SF-539.

For `O=C(C(=C(I)I)c1ccccc1)c1ccccc1`, the GI50 was 8.63 µM (inactive) in the test on IGROV-1; 33.6 µM (inactive) in the test with HT-29; 28.8 µM (inactive) in the test with EKVX; 13.2 µM (inactive) in the test with HL-60; 39.9 µM (inactive) in the test with OVCAR-4; > 10 µM (inactive) in the test with HCC 2998. Also, the GI50 was 18.2 µM (inactive) in the test with UACC-62; 27.5 µM (inactive) in the test on COLO 205; > 10 µM (inactive) with 786-0; 4.7 µM (inactive) in the test on K562; 25 µM (inactive) in the test with M14; 19.8 µM (inactive) in the test with MOLT-4. Moreover, the GI50 in the test with A549 is 36.9 µM (inactive); in the test with SN12C, 24 µM (inactive); in the test on SNB-19, 29.9 µM (inactive); in the test on OVCAR-5 it was 86.3 µM (inactive); in the test with Malme-3M, 19.7 µM (inactive); in the test on SF-539, 24.8 µM (inactive).

For the compound `CC(=O)NNc1nc(C)c(C(=O)NNC(=O)C(=O)Nc2ccc(Cl)cc2Cl)s1`, the GI50 with IGROV-1 is 63.5 µM (inactive); with HT-29, 48.5 µM (inactive); in the test on EKVX it was 40.1 µM (inactive); in the test on HL-60, 37.4 µM (inactive); with OVCAR-4 it was 22 µM (inactive); in the test on HCC 2998, 40.6 µM (inactive). The GI50 with UACC-62 was 25.2 µM (inactive); with COLO 205 it was 35.9 µM (inactive); in the test on 786-0, 40.7 µM (inactive); with K562, 21 µM (inactive); with M14, 42.5 µM (inactive); with MOLT-4, 20.1 µM (inactive). Moreover, the GI50 in the test on A549 is 35.9 µM (inactive); in the test with SN12C, 45.6 µM (inactive); with SNB-19, 42.6 µM (inactive); in the test with OVCAR-5 it was 55.1 µM (inactive); in the test on Malme-3M, 57 µM (inactive); with SF-539 it was 30.1 µM (inactive).

For the compound `CCCCNc1nc(N)nc(Nc2ccc(Br)cc2)c1N=O`, the GI50 in the test on IGROV-1 was > 100 µM (inactive); in the test with HT-29, 86.5 µM (inactive); in the test on EKVX, > 100 µM (inactive); with HL-60, 17.9 µM (inactive); in the test on HCC 2998, 87.7 µM (inactive); in the test on UACC-62, 62.7 µM (inactive). In addition, the GI50 is 47 µM (inactive) with COLO 205; 17.5 µM (inactive) in the test on 786-0; 38.9 µM (inactive) in the test on K562; > 100 µM (inactive) in the test on M14; 18.8 µM (inactive) in the test with MOLT-4; 33.7 µM (inactive) in the test on A549. The GI50 in the test on SN12C was 58.7 µM (inactive); in the test on SNB-75, 52.2 µM (inactive); with SNB-19, > 100 µM (inactive); with OVCAR-5, 77.4 µM (inactive); with Malme-3M it was > 100 µM (inactive); with SF-539, 80.2 µM (inactive).

As to `CC1(C)CC(c2c[nH]c3ccccc23)=CC2=Nc3ccccc3C21O` (stereo unspecified), the GI50 was > 100 µM (inactive) in the test on IGROV-1; 59.4 µM (inactive) in the test on HT-29; 63.1 µM (inactive) in the test on EKVX; > 100 µM (inactive) in the test on HL-60; 8.38 µM (inactive) with OVCAR-4; > 100 µM (inactive) in the test with UACC-62. Further, the GI50 in the test on COLO 205 is > 100 µM (inactive); in the test with 786-0, 43.7 µM (inactive); in the test on K562, 91.6 µM (inactive); in the test on M14, > 100 µM (inactive); with MOLT-4, > 100 µM (inactive); in the test with A549, 35.5 µM (inactive). Moreover, the GI50 was > 100 µM (inactive) in the test with SN12C; 5.94 µM (inactive) in the test with SNB-75; 65.2 µM (inactive) with SNB-19; > 100 µM (inactive) in the test on OVCAR-5; > 100 µM (inactive) with Malme-3M; 93.1 µM (inactive) with SF-539.

On to `Cc1cccc(Nc2cn(CCOc3ccccc3)c(=O)n(CCOc3ccccc3)c2=O)c1`, for which the GI50 was 23.3 µM (inactive) in the test with IGROV-1; 2.54 µM (inactive) in the test with EKVX; > 100 µM (inactive) in the test on OVCAR-4; > 100 µM (inactive) with HCC 2998; > 100 µM (inactive) with UACC-62; > 100 µM (inactive) in the test with COLO 205. Also, the GI50 in the test with 786-0, in the test on K562, in the test on M14, in the test with MOLT-4, with A549 and in the test on SN12C was > 100 µM (inactive) each time. In addition, the GI50 in the test with SNB-19 and in the test with OVCAR-5 was > 100 µM (inactive) each time.

As for `Cc1c2ccnc(O)c2cc2c(=O)c3cnccc3[nH]c12`, the GI50 in the test with IGROV-1, with HT-29, in the test with EKVX, in the test with HL-60, in the test on OVCAR-4 and in the test on HCC 2998 was > 100 µM (inactive) throughout. The GI50 in the test with UACC-62, in the test with COLO 205, with 786-0, with K562, in the test on M14 and with MOLT-4 was > 100 µM (inactive) in each case. For the same compound, the GI50 in the test on A549, in the test with SN12C, with SNB-75, in the test on SNB-19, in the test on OVCAR-5 and in the test on Malme-3M was > 100 µM (inactive) each time.

With `CCC1CNC(=O)CC1CC(=O)OC` (stereo unspecified), the GI50 in the test on IGROV-1, with EKVX, with HL-60, in the test on OVCAR-4, with HCC 2998 and in the test with UACC-62 was > 100 µM (inactive) each time. Moreover, the GI50 in the test on 786-0, with K562, in the test on M14, in the test with MOLT-4, in the test with A549 and in the test on SN12C was > 100 µM (inactive) each time. Moreover, the GI50 in the test with SNB-75, in the test on SNB-19, in the test with OVCAR-5 and in the test on Malme-3M was > 100 µM (inactive) each time.

Turning to `Cc1ccc(S(=O)(=O)n2cnc(CC(NC(=O)C3CCC(=O)N3C(=O)OCc3ccccc3)C(=O)N3CCCC3C(=O)NN)c2)cc1` (stereo unspecified), the GI50 with IGROV-1, in the test on HT-29, in the test on EKVX, in the test with HL-60, in the test with HCC 2998 and in the test on COLO 205 was > 100 µM (inactive) in each case. The GI50 with 786-0, in the test with K562, in the test on M14, in the test with MOLT-4, in the test with A549 and with SN12C was > 100 µM (inactive) throughout. In addition, the GI50 with SNB-75 is > 100 µM (inactive); with SNB-19 it was 48.8 µM (inactive); with OVCAR-5, > 100 µM (inactive); with Malme-3M it was > 100 µM (inactive).

For the compound `c1ccc2c(CNCCCCCCCCCCCCNCc3cccc4ccccc34)cccc2c1`, the GI50 is 1.84 µM (inactive) in the test on IGROV-1; 1.64 µM (inactive) in the test with HT-29; 3.1 µM (inactive) with EKVX; 1.47 µM (inactive) with HL-60; 1.58 µM (inactive) in the test with OVCAR-4; 1.82 µM (inactive) in the test with UACC-62. In addition, the GI50 in the test with COLO 205 is > 100 µM (inactive); with 786-0, 1.81 µM (inactive); in the test on K562, 0.467 µM (active); with M14, 1.85 µM (inactive); in the test with MOLT-4, 1.22 µM (inactive); with A549, 1.85 µM (inactive). The GI50 in the test with SN12C was 3.53 µM (inactive); in the test on SNB-75, 1.79 µM (inactive); in the test with OVCAR-5, 1.54 µM (inactive); in the test with Malme-3M it was 2.21 µM (inactive); with SF-539 it was 1.58 µM (inactive).

For the compound `COc1cc(CO)cc2c1[nH]c1ccccc12` [KOENOLINE], the GI50 with IGROV-1, with HT-29, with HL-60, with OVCAR-4, in the test on HCC 2998 and in the test with UACC-62 was > 25 µM (inactive) throughout. Moreover, the GI50 was > 25 µM (inactive) in the test on COLO 205; > 25 µM (inactive) in the test on 786-0; 11.9 µM (inactive) in the test with K562; > 25 µM (inactive) in the test with M14; > 25 µM (inactive) in the test with MOLT-4; > 25 µM (inactive) in the test with A549. The GI50 with SN12C is > 25 µM (inactive); in the test on SNB-19 it was > 25 µM (inactive); in the test with OVCAR-5 it was 20.8 µM (inactive); in the test on Malme-3M, > 25 µM (inactive); in the test on SF-539, > 25 µM (inactive).
